Laboratory results reported in US20040170622A1, “Methods and compositions for modulating XBP-1 activity” (President and Fellows of Harvard College, priority 2002, published 2004).

What was measured:
Assay type in all cases: cell-based
J558 myeloma cells = test: Apoptosis of J558 myeloma cells (Annexin V staining); conditions: agent alone
Experimental: (§1) (A) BiP and CHOP induction was examined by northern blot analysis after treating NIH3T3 or J558 myeloma cells with either MG-132 (20 μM), Tm (10 μg/ml) or both. Cells were pretreated with MG-132 for 1 hr and then further treated with Tm for 4 hrs. Ethidium bromide staining of the gel is shown at the bottom. (B) Inhibition of caspase-12 processing by proteasome inhibitors. Processing of full-length caspase-12 was examined by Western blotting in J558 myeloma cells treated with thapsigargin (1 μM) or PIs (20 μM) during the indicated time periods. (C) Alteration in the ratio of XBP-1 protein species in J558 cells were treated with increasing amounts of MG-132 for 16 hrs. Cells undergoing apoptosis were counted by Annexin V staining. (D) Time course of the XBP-1s to XBP-1u shift. Cells were treated with MG-132 (1 μM) for the indicated times and XBP-1u and spliced protein levels and cell death determined. (E) Alteration in the ratio of XBP-1 species in the MM.1s human myeloma line. Cells were treated with PS-341 (8 nM) in a time course analysis and XBP-1 protein species quantified.
(A) Synergistic effect of Tm and MG-132 on apoptosis. Annexin V positive cells were counted after treating J558 cells for 18 hrs with suboptimal concentrations of Tm and MG-132 as indicated. (B) J558-iXBP cells were generated by retroviral transduction of J558 cells with the U6 promoter based XBP-1 RNAi vector. (C) XBP-1 dependent gene expression in J558 cells that express control GFP, dn-XBP or iXBP-1 treated with Tm. Generation of dn-XBP-1 J558 cells by infection with a retrovirus containing dn-XBP cDNA inserted into the GFP-RV vector (N. N. lwakoshi et al., Nature Immunology 4, 321-329 (2003)). ERdj4, p58^IPK, BiP and CHOP gene expression were examined by Northern blot analysis. (D) Increased apoptosis in iXBP-1 and dn-XBP-1 expressing J558 cells. Cells were treated with the indicated amounts of Tm for 48 hrs and dead cells counted after Annexin V staining.
Cells were stained with annexin V-PE (BD PharMingen, San Jose, Calif.) as recommended and analyzed on a FACScan flow cytometer (Becton Dickinson, San Jose, Calif.).

XBP-1 protein = XBP-1 protein species in MOPC315 and MM.1S myeloma cells treated with proteasome inhibitors (Western blot); conditions: mouse myeloma MOPC315 and human myeloma MM.1S
Experimental: A variety of reversible and irreversible inhibitors that inhibit degradation of proteins by the ubiquitin-proteasome pathway have recently been identified. Proteasome inhibitors MG132 and PS341 block the rapid degradation of ubiquitinated proteins such as unspliced, but not spliced XBP-1. Myeloma cells express primarily spliced XBP-1 protein as expected. […] In this experiment lysates from MOPC315 cells were untreated or treated for 6 hours with 5 ug/ml of tunicamycin or 20 uM of MG-132 and were analyzed for the presence of XBP-1 using XBP-1 antibody. The two forms of XBP-1 were distinguished by their molecular weight.
In the presence of proteasome inhibitors, unspliced XBP-1 protein accumulates in the cell and is present at higher levels than the spliced protein. Lysates from Mm. 1S cells were untreated or treated for 1, 4, or 8 hours with 20 uM of PS-341 and were analyzed by western blotting with anti-XBP-1 antibody. Because unspliced, but not spliced XBP-1 is stabilized, the ratio of unspliced to spliced XBP-1 increases in cells treated with proteasome inhibitors.

[1] = test system: IRE1α-mediated XBP-1 mRNA splicing; test: XBP-1 mRNA level and splicing in J558 cells (Northern blot, RT-PCR); conditions: J558, Tm 4 hrs; MG-132 10 μM, PS-341 10 μM, ZL3VS 50 μM, AdaAhxL3VS 50 μM
Experimental: (A) XBP-1 mRNA levels in ER stressed J558 cells treated with Tm for 4 hrs in the absence or presence of MG-132. Cells were pretreated with MG-132 for 1 hr before adding Tm. XBP-1 mRNA levels were determined by Northern blot analysis. […] (C) Effect of a panel of PIs on XBP-1 splicing. Cells were treated with Tm for 4 hrs in the absence or presence of MG-132 (10 μM), PS-341 (10 μM), Lactacystin (10 μM), ZL3VS (50 μM) or AdaAhxL3VS (50 μM), and XBP-1 mRNA splicing measured by RT-PCR analysis. (D) IRE-1α phosphorylation in NIH3T3 cells were treated with Tm as indicated after 2 hrs of pretreatment with MG-132 (10 μM).
Total RNA was prepared by using Trizol reagent, electrophoresed on 1.2% agarose, 6% formaldehyde gels and then transferred onto Genescreen Plus membrane, (NEN, Boston, Mass.). […] Probes for ERdj4 and p58^IPK were generated from cDNA excised from EST clones (ATCC, Manassas, Va.) using appropriate restriction enzymes (ERdj4, IMAGE: 1920927; p58^IPK, IMAGE:2646147).

XBP-1s and XBP-1u = test: Ratio of XBP-1 species in MM.1s line and primary MM cells; conditions: human MM cell line MM.1s and primary MM cells from patient bone marrow
Experimental: as §1

[2] = test system: XBP-1u and XBP-1s proteins; test: XBP-1u and XBP-1s protein levels in J558 cells (Western blot); conditions: J558 cells, 16 hrs
Experimental: as §1
Cells were lysed in RIPA buffer (50 mM Tris pH 7.4, 150 mM NaCl, 1 mM EDTA, 1% Triton X-100, 1% sodium deoxycholate, 0.1% SDS) and lysates subjected to SDS-PAGE and transferred to Hybond P membrane (Amersham-Pharmacia, Piscataway, N.J.). […] HeLa cells were cotransfected with XBP-1u and His-tagged ubiquitin expression plasmids (pMT 107, D. Bohmann, EMBL, Germany) by using the Lipofectamine-2000 reagent (Invitrogen, Carlsbad, Calif.). […] Degradation rates of XBP-1u and XBP-1s proteins were determined by pulse labeling J558 cells with ^35S Met/Cys for 1 hr and chasing for the indicated times.

With `CC(C)C[C@H](NC(=O)[C@H](Cc1ccccc1)NC(=O)c1cnccn1)B(O)O` [PS-341] the “apoptosis in J558 cells” value (J558 myeloma cells) was “induced apoptosis in J558 cells”, the “amount of unspliced XBP-1 protein” value (XBP-1 protein) was “dramatic increase in the amount of unspliced XBP-1 protein” and the “levels of active spliced XBP-1 protein” value (XBP-1 protein) was “concomitant decrease in levels of the active spliced XBP-1 protein”. For the same compound, the “effect on Tm-induced XBP-1 mRNA splicing” value [1] was “suppressed XBP-1 mRNA splicing as efficiently as MG-132”, the “shift in the ratio of XBP-1s to XBP-1u” value (XBP-1s and XBP-1u) was “induced the same marked shift in the ratio of XBP-1s to XBP-1u” and the “XBP-1u accumulation and XBP-1s decrease” value [2] was “striking accumulation of XBP-1 u and a concomitant decrease in XBP-1s proteins”.
